Where two headings read alike, the source gives them in different places.
Columns and labels:
HA-hCB2 [1] = molecular target: T1, HA-hCB2 (Homo sapiens, UniProt P34972); experiment: [3H]CP55, […] competition, membranes; type: binding
T1 construct: gene CNR2

HA-hCB1 = molecular target: T2, HA-hCB1 (Homo sapiens, UniProt P21554); experiment: [3H]SR141716A competition, membranes; type: binding
T2 construct: gene CNR1

human CB2 (AtT20-CB2) [2] = molecular target: T3, human CB2 (AtT20-CB2) (Homo sapiens, UniProt P34972); experiment: FLIPR membrane potential assay, AtT20 cells; type: cell-based
T3 construct: gene CNR2; full-length, stably transfected in mouse AtT20 cells
Excerpt: FLIPR membrane potential assay, AtT20 cells on human CB2 (AtT20-CB2)

human CB2 (AtT20-CB2) [3] = molecular target: T3, human CB2 (AtT20-CB2); experiment: cell-based; conditions: for Emax: read-out: hCB2 Max (% CP 55,940); for EC50: read-out: hCB2 pEC50 (converted)
Procedure: (§1) Mouse AtT20 neuroblastoma cells stably transfected with human CB1 or human CB2 have been previously described.[43] and were cultured in Dulbecco’s modified Eagle’s medium (DMEM) containing 10% fetal bovine serum (FBS), 100 U penicillin/streptomycin, and 80 μg/mL hygromycin (InvivoGen, San Diego, CA, USA). Cells were passaged at 80% confluency as required. Cells for assays were grown in 75 cm2 flasks and used at 90% confluence. The day before the assay cells were detached from the flask with trypsin/EDTA (Sigma) and resuspended in 10 mL of Leibovitz’s L-15 media supplemented with 1% FBS, 100 U penicillin/streptomycin and 15 mM glucose. The cells were plated in volume of 90 μL in black walled, clear bottomed 96-well microplates (Corning) which had been precoated with poly-L-lysine (Sigma, Australia). Cells were incubated overnight at 37 °C in ambient CO2. Membrane potential was measured using a FLIPR Membrane Potential Assay kit (blue) from Molecular Devices, as described previously.[46] The dye was reconstituted with assay buffer of composition (mM): NaCl 145, HEPES 22, Na2HPO4 0.338, NaHCO3 4.17, KH2PO4 0.441, MgSO4 0.407, MgCl2 0.493, CaCl2 1.26, glucose 5.56 (pH 7.4, osmolarity 315 ± 5). Prior to the assay, cells were loaded with 90 μL/well of the dye solution without removal of the L-15, giving an initial assay volume of 180 μL/well. Plates were then incubated at 37 °C at ambient CO2 for 45 min. Fluorescence was measured using a FlexStation 3 (Molecular Devices) microplate reader with cells excited at a wavelength of 530 nm and emission measured at 565 nm. Baseline readings were taken every 2 s for at least 2 min, at which time either drug or vehicle was added in a volume of 20 μL. The background fluorescence of cells without dye or dye without cells was negligible. Changes in fluorescence were expressed as a percentage of baseline fluorescence after subtraction of the changes produced by vehicle addition. The final concentration of DMSO was 0.1%. Data were analyzed with PRISM (GraphPad Software Inc., San Diego, CA), using four-parameter nonlinear regression to fit concentration-response curves. In all plates, a maximally effective concentration of CP 55,940 was added to allow for normalization between assays.

human CB1 (AtT20-CB1) = molecular target: T4, human CB1 (AtT20-CB1) (Homo sapiens, UniProt P21554); experiment: cell-based; conditions: read-out: % activation
T4 construct: gene CNR1; full-length, stably transfected in mouse AtT20 cells
Procedure: as §1

HA-hCB2 [4] = molecular target: T1, HA-hCB2; experiment: biochemical; design: species or system HEK 293; conditions: read-out: hCB2 pKi (converted)

T2 sequence (P21554 whole entry): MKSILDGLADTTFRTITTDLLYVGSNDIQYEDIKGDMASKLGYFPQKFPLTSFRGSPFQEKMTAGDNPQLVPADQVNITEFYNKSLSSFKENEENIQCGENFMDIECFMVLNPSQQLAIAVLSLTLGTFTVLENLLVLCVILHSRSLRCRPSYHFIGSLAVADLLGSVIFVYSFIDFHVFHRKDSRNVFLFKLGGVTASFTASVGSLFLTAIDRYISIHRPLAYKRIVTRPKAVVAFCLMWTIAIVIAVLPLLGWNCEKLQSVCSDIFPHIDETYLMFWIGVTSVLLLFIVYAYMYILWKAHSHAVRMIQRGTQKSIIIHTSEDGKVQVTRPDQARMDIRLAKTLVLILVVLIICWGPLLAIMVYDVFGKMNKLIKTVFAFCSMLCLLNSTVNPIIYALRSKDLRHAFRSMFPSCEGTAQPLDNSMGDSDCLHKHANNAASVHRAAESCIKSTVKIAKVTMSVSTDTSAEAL
T4 sequence (P21554 whole entry): as above
T3 sequence (P34972 whole entry): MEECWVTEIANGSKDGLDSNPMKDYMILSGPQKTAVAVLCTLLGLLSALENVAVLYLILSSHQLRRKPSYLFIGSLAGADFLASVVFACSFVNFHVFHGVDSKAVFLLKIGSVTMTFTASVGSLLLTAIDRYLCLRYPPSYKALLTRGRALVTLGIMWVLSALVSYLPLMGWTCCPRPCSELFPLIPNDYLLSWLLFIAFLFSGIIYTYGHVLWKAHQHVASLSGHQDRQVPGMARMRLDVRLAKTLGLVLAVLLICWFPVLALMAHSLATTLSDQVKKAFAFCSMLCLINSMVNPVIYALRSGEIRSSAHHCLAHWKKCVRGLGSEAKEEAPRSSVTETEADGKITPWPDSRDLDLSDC
T1 sequence (P34972 whole entry): as above

SMILES	Ki (HA-hCB2 [1])	Ki (HA-hCB1)	EC50 (human CB2 (AtT20-CB2) [2])	Emax (human CB2 (AtT20-CB2) [3])	Ki (HA-hCB2 [1]; read-out: Ki)	Ki (HA-hCB1; read-out: pKi (converted))	EC50 (human CB2 (AtT20-CB2) [2]; read-out: EC50)	activity at 10 µM (human CB1 (AtT20-CB1))	activity at 10 µM (human CB2 (AtT20-CB2) [3]; read-out: % activation)	EC50 (human CB2 (AtT20-CB2) [3])	Ki (HA-hCB2 [4])
O=C(c1cn(CCCCCF)c2ccccc12)N1CCCC1 [compound 5, (1-(5-Fluoropentyl)-1H-indol-3-yl)(pyrrolidin-1-yl)methanone]	1740 nM	> 10000 nM	338 nM	50 ± 3%	–	–	–	–	–	–	–
O=C(c1cn(CCCCCF)c2ccccc12)N1CCCCC1 [compound 7, (1-(5-Fluoropentyl)-1H-indol-3-yl)(piperidin-1-yl)methanone]	–	–	–	64 ± 3%	363 nM	> 10000 nM	36.3 nM	–	–	–	–
O=C(c1cn(CCCCCF)c2ccccc12)N1CCCCCC1 [compound 8, Azepan-1-yl(1-(5-fluoropentyl)-1H-indol-3-yl)methanone]	–	–	–	72 ± 3%	102 nM	> 10000 nM	29 nM	–	–	–	–
CCN(CC)C(=O)c1cn(CCCCCF)c2ccccc12 [compound 9, 1-(5-Fluoropentyl)-N,N-diethyl-1H-indole-3-carboxamide]	–	–	–	53 ± 4%	1020 nM	> 10000 nM	137 nM	0%	–	–	–
CN(C)C(=O)c1cn(CCCCCF)c2ccccc12 [compound 10, 1-(5-Fluoropentyl)-N,N-dimethyl-1H-indole-3-carboxamide]	–	–	–	–	> 10000 nM	> 10000 nM	–	9 ± 4%	11 ± 2%	–	–
CCCCn1cc(C(=O)N2CCCC2)c2ccccc21 [compound 11, (1-Butyl-1H-indol-3-yl)(pyrrolidin-1-yl)methanone]	–	–	–	63 ± 9%	> 10000 nM	> 10000 nM	–	16 ± 9%	–	468 nM	–
CCCCCn1cc(C(=O)N2CCCC2)c2ccccc21 [compound 12, (1-Pentyl-1H-indol-3-yl)(pyrrolidin-1-yl)methanone]	–	–	–	54 ± 7%	–	> 10000 nM	–	1 ± 3%	–	234 nM	3240 nM
O=C(c1cn(Cc2ccc(F)cc2)c2ccccc12)N1CCCC1 [compound 13, (1-(4-Fluorobenzyl)-1H-indol-3-yl)(pyrrolidin-1-yl)methanone]	–	–	–	38 ± 13%	–	> 10000 nM	–	12 ± 2%	–	363 nM	3550 nM
O=C(c1cn(CC2CCCCC2)c2ccccc12)N1CCCC1 [compound 14, (1-(Cyclohexylmethyl)-1H-indol-3-yl)(pyrrolidin-1-yl)methanone]	–	–	–	38 ± 3%	–	> 10000 nM	–	–	–	135 nM	1070 nM

Reference: doi:10.1101/430959v1, “The chemistry and pharmacology of putative synthetic cannabinoid receptor agonist (SCRA) new psychoactive substances (NPS) 5F-PY-PICA, 5F-PY-PINACA, and their analogues” (biorxiv, 2018)
